Our source for the melting point and IC50 values is article PMC6274419, “Synthesis and Anticancer Activities of Glycyrrhetinic Acid Derivatives” (Molecules, 2016).

The structures appear in SMILES notation. Counter-ions that a name gives are not always drawn. Like-named read-outs stand apart in the source and are kept apart here.

For one series, the system named is MCF-7 cells. As to the kind of experiment: MTT cytotoxicity assay, MCF-7. Type of series: cell-based, human. The conditions noted are these: read-out: IC50 MCF-7. How it is done: (§1) The anticancer activities of compounds 17–24, 41–56 against MCF-7, MDA-MB-231 and hTERT-RPE1 cells were determined in vitro by an MTT assay. […] The data was calculated and presented as IC50 values in Table 1.
(§2) The cytotoxicities of the compounds were evaluated by the MTT assay, which is based on the conversion of MTT to formazan crystals by mitochondrial dehydrogenases. […] The medium was incubated with 20 μL of 5 mg/mL MTT solution for 3 h in a humidified incubator containing 5% CO2. The purple coloured formazan crystals formed in the wells were dissolved in DMSO and their absorbances were measured at 570 nm with a microplate reader. Cell viability was expressed as a percentage of the value in control cultures.
(In general: Formazan colour is commonly taken as a measure of viable cells.)

Another series relates to MDA-MB-231 cells. As to the kind of experiment: MTT cytotoxicity assay, MDA-MB-231. The series is classed as cell-based, human. Conditions: read-out: IC50 MDA-MB-231. Here is the method:
The data was calculated and presented as IC50 values in Table 1.
as §2

A further series has as its system hTERT-RPE1 cells. The series is described as follows: MTT cytotoxicity assay, hTERT-RPE1 normal cells. The series is classed as cell-based, human. The conditions noted are these: read-out: IC50 hTERT-RPE1. Here is the method:
as §1, §2

Where [1] appears, read: MCF7, human breast cancer cell line MCF-7, MTT method, 24 h treatment, mean ± SD.
[2] abbreviates: human breast cancer cell line MDA-MB-231, MTT method, 24 h treatment, mean ± SD.
The mark [3] stands for this setting: normal human retinal pigment epithelial cell line hTERT-RPE1, MTT method, 24 h treatment, mean ± SD.

As usually defined, the melting point is the temperature of the solid-liquid transition. `COC(=O)/C=C/c1ccc(OC(=O)[C@@]2(C)CC[C@]3(C)CC[C@]4(C)C(=CC(=O)[C@@H]5[C@@]6(C)CC[C@H](OC(=O)[C@@H](N)CCSC)C(C)(C)[C@@H]6CC[C@]54C)[C@@H]3C2)c(OC)c1` (as salt: hydrochloride) [Compound 41, Ferulic acid methyl ester 3β-(l-methionine)-11-oxo-olean-12-en-30-oate hydrochloride] registered a melting point of 203 to 205 °C.
As for `COC(=O)/C=C/c1ccc(OC(=O)[C@@]2(C)CC[C@]3(C)CC[C@]4(C)C(=CC(=O)[C@@H]5[C@@]6(C)CC[C@H](OC(=O)[C@@H](N)CC[Se]C)C(C)(C)[C@@H]6CC[C@]54C)[C@@H]3C2)c(OC)c1` (as salt: hydrochloride) [Compound 42, Ferulic acid methyl ester 3β-(l-selenomethionine)-11-oxo-olean-12-en-30-oate hydrochloride], the melting point was 210 to 213 °C.
`CCOC(=O)/C=C/c1ccc(OC(=O)[C@@]2(C)CC[C@]3(C)CC[C@]4(C)C(=CC(=O)[C@@H]5[C@@]6(C)CC[C@H](OC(=O)[C@@H](N)CCSC)C(C)(C)[C@@H]6CC[C@]54C)[C@@H]3C2)c(OC)c1` (as salt: hydrochloride) [Compound 43, Ferulic acid ethyl ester 3β-(l-methionine)-11-oxo-olean-12-en-30-oate hydrochloride]: the melting point is 191 to 194 °C.
Consider `CCOC(=O)/C=C/c1ccc(OC(=O)[C@@]2(C)CC[C@]3(C)CC[C@]4(C)C(=CC(=O)[C@@H]5[C@@]6(C)CC[C@H](OC(=O)[C@@H](N)CC[Se]C)C(C)(C)[C@@H]6CC[C@]54C)[C@@H]3C2)c(OC)c1` (as salt: hydrochloride) [Compound 44, Ferulic acid ethyl ester 3β-(l-selenomethionine)-11-oxo-olean-12-en-30-oate hydrochloride], for which the melting point is 205 to 207 °C.
Compound `COC(=O)/C=C/c1ccc(OC(=O)[C@@]2(C)CC[C@]3(C)CC[C@]4(C)C(=CC(=O)[C@@H]5[C@@]6(C)CC[C@H](OC(=O)[C@@H](N)CCSC)C(C)(C)[C@@H]6CC[C@]54C)[C@@H]3C2)cc1` (as salt: hydrochloride) [Compound 45, trans-4-Hydroxycinnamic acid methyl ester 3β-(l-methionine)-11-oxo-olean-12-en-30-oate hydrochloride] showed a melting point of 205 to 207 °C.
For orientation: IC50 means the midpoint of a concentration-inhibition curve. For the compound `CCOC(=O)/C=C/c1ccc(OC(=O)[C@@]2(C)CC[C@]3(C)CC[C@]4(C)C(=CC(=O)[C@@H]5[C@@]6(C)CC[C@H](OC(=O)[C@@H](N)CC[Se]C)C(C)(C)[C@@H]6CC[C@]54C)[C@@H]3C2)cc1` [Compound 48, trans-4-Hydroxycinnamic acid ethyl ester 3β-(l-selenomethionine)-11-oxo-olean-12-en-30-oate hydrochloride], the IC50 in the series with MCF-7 cells (Homo sapiens, MCF7, 24 h) is 2.42 ± 0.23 µM; with MDA-MB-231 cells (Homo sapiens, MDA-MB-231, 24 h) it was 1.86 ± 0.29 µM; in the series on hTERT-RPE1 cells (Homo sapiens, hTERT-RPE1, 24 h), 7.08 ± 0.73 µM.
As to `COC(=O)/C=C/c1ccc(OC)c(OC(=O)[C@@]2(C)CC[C@]3(C)CC[C@]4(C)C(=CC(=O)[C@@H]5[C@@]6(C)CC[C@H](OC(=O)[C@@H](N)CCSC)C(C)(C)[C@@H]6CC[C@]54C)[C@@H]3C2)c1` [Compound 49, Isoferulic acid methyl ester 3β-(l-methionine)-11-oxo-olean-12-en-30-oate hydrochloride], the IC50 in the series with MCF-7 cells (setting [1]) is 8.7 ± 0.14 µM; with MDA-MB-231 cells (setting [2]), 4.56 ± 0.36 µM; in the series on hTERT-RPE1 cells (setting [3]) it was 8.92 ± 0.55 µM.
As to `COC(=O)/C=C/c1ccc(OC)c(OC(=O)[C@@]2(C)CC[C@]3(C)CC[C@]4(C)C(=CC(=O)[C@@H]5[C@@]6(C)CC[C@H](OC(=O)[C@@H](N)CC[Se]C)C(C)(C)[C@@H]6CC[C@]54C)[C@@H]3C2)c1` [Compound 50, Isoferulic acid methyl ester 3β-(l-selenomethionine)-11-oxo-olean-12-en-30-oate hydrochloride], the half-inhibitory concentration (IC50) is 5.12 ± 0.58 µM in the series on MCF-7 cells (Homo sapiens, MCF7, 24 h); 3.13 ± 0.45 µM in the series with MDA-MB-231 cells (Homo sapiens, MDA-MB-231, 24 h); 9.79 ± 0.37 µM in the series with hTERT-RPE1 cells (Homo sapiens, hTERT-RPE1, 24 h).
As for `CCOC(=O)/C=C/c1ccc(OC)c(OC(=O)[C@@]2(C)CC[C@]3(C)CC[C@]4(C)C(=CC(=O)[C@@H]5[C@@]6(C)CC[C@H](OC(=O)[C@@H](N)CCSC)C(C)(C)[C@@H]6CC[C@]54C)[C@@H]3C2)c1` [Compound 51, Isoferulic acid ethyl ester 3β-(l-methionine)-11-oxo-olean-12-en-30-oate hydrochloride], the half-maximal inhibitory concentration (IC50) in the series with MCF-7 cells (setting [1]) stood at 8.81 ± 0.2 µM; in the series on MDA-MB-231 cells (setting [2]), 4.67 ± 0.74 µM; in the series with hTERT-RPE1 cells (setting [3]) it was 12.5 ± 0.4 µM.
Take `CCOC(=O)/C=C/c1ccc(OC)c(OC(=O)[C@@]2(C)CC[C@]3(C)CC[C@]4(C)C(=CC(=O)[C@@H]5[C@@]6(C)CC[C@H](OC(=O)[C@@H](N)CC[Se]C)C(C)(C)[C@@H]6CC[C@]54C)[C@@H]3C2)c1` [Compound 52, Isoferulic acid ethyl ester 3β-(l-selenomethionine)-11-oxo-olean-12-en-30-oate hydrochloride]: the IC50 with MCF-7 cells (Homo sapiens, MCF7, 24 h) was found to be 6.93 ± 0.63 µM; with MDA-MB-231 cells (Homo sapiens, MDA-MB-231, 24 h), 3.27 ± 0.66 µM; with hTERT-RPE1 cells (Homo sapiens, hTERT-RPE1, 24 h), 10.1 ± 0.28 µM.
With `COC(=O)/C=C/c1cccc(OC(=O)[C@@]2(C)CC[C@]3(C)CC[C@]4(C)C(=CC(=O)[C@@H]5[C@@]6(C)CC[C@H](OC(=O)[C@@H](N)CCSC)C(C)(C)[C@@H]6CC[C@]54C)[C@@H]3C2)c1` [Compound 53, trans-3-Hydroxycinnamic acid methyl ester 3β-(l-methionine)-11-oxo-olean-12-en-30-oate hydrochloride], the concentration for half-maximal inhibition (IC50) in the series with MCF-7 cells (setting [1]) was 7.2 ± 0.55 µM; with MDA-MB-231 cells (setting [2]) it was 3.54 ± 0.46 µM; in the series on hTERT-RPE1 cells (setting [3]) it was 8.49 ± 0.51 µM.
As for `COC(=O)/C=C/c1cccc(OC(=O)[C@@]2(C)CC[C@]3(C)CC[C@]4(C)C(=CC(=O)[C@@H]5[C@@]6(C)CC[C@H](OC(=O)[C@@H](N)CC[Se]C)C(C)(C)[C@@H]6CC[C@]54C)[C@@H]3C2)c1` [Compound 54, trans-3-Hydroxycinnamic acid methyl ester 3β-(l-selenomethionine)-11-oxo-olean-12-en-30-oate hydro-chloride], the IC50 was 3.48 ± 0.82 µM in the series on MCF-7 cells (Homo sapiens, MCF7, 24 h); 2.46 ± 0.77 µM in the series on MDA-MB-231 cells (Homo sapiens, MDA-MB-231, 24 h); 4.55 ± 0.44 µM in the series with hTERT-RPE1 cells (Homo sapiens, hTERT-RPE1, 24 h).
Consider `CCOC(=O)/C=C/c1cccc(OC(=O)[C@@]2(C)CC[C@]3(C)CC[C@]4(C)C(=CC(=O)[C@@H]5[C@@]6(C)CC[C@H](OC(=O)[C@@H](N)CCSC)C(C)(C)[C@@H]6CC[C@]54C)[C@@H]3C2)c1` [Compound 55, trans-3-Hydroxycinnamic acid ethyl ester 3β-(l-methionine)-11-oxo-olean-12-en-30-oate hydrochloride], for which the IC50 came out at 5.79 ± 0.85 µM in the series with MCF-7 cells (setting [1]), 1.92 ± 0.91 µM in the series on MDA-MB-231 cells (setting [2]) and 6.63 ± 0.22 µM with hTERT-RPE1 cells (setting [3]).
`CCOC(=O)/C=C/c1cccc(OC(=O)[C@@]2(C)CC[C@]3(C)CC[C@]4(C)C(=CC(=O)[C@@H]5[C@@]6(C)CC[C@H](OC(=O)[C@@H](N)CC[Se]C)C(C)(C)[C@@H]6CC[C@]54C)[C@@H]3C2)c1` [Compound 56, trans-3-Hydroxycinnamic acid ethyl ester 3β-(l-selenomethionine)-11-oxo-olean-12-en-30-oate hydrochloride]: the IC50 was found to be 2.57 ± 0.4 µM with MCF-7 cells (Homo sapiens, MCF7, 24 h); 1.53 ± 0.25 µM in the series on MDA-MB-231 cells (Homo sapiens, MDA-MB-231, 24 h); 3.7 ± 0.29 µM in the series with hTERT-RPE1 cells (Homo sapiens, hTERT-RPE1, 24 h).
In the case of `CC1(C)[C@@H](O)CC[C@]2(C)[C@H]3C(=O)C=C4[C@@H]5C[C@@](C)(C(=O)O)CC[C@]5(C)CC[C@@]4(C)[C@]3(C)CC[C@@H]12` [GA, glycyrrhetinic acid], the IC50 was determined as 75.7 ± 1.52 µM in the series on MCF-7 cells (setting [1]), 84.7 ± 1.73 µM in the series on MDA-MB-231 cells (setting [2]) and 63.4 ± 1.07 µM in the series on hTERT-RPE1 cells (setting [3]).
